Structures are written as SMILES. Like-named read-outs stand apart in the source and are kept apart here.

This is an account of results in patent US20240124483A1, “Methods for the Treatment of Fibrotic Disease” (SHY Therapeutics, LLC, priority 2021, published 2024).

One assay deals with JNK. The assay is described as follows: JNK Activation Assay in Panc-1 (western blot). The format is cell-based, Human. Details: key: Y = yes; N = No. Particulars: at 10 μM. A digest of the protocol: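 Cells were serum-starved overnight in 0.5% FBS, then given compound (10 μM single dose or serial dilutions, 0.3% DMSO) for 3 h at 37 °C. TGF-b1 at 10 ng/ml followed, 1 h for Panc-1 and 20 min for C2C12. Phospho-JNK (Thr183/Tyr185) was read by western blot of lysates.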
A general note: Immunoblotting shows a protein as a band on a membrane.

The next assay has as its target KRas wild type (Homo sapiens (Human), UniProt P01116). Nature of the assay: Ras GTP Binding Domain Inhibition Assay, KRas wild type. A digest of the protocol: (§1)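 His-tagged KRas proteins coated on nickel plates overnight at 4° C in Tris buffer (pH 7.4 or 7.0, MgCl2, DTT); compounds at 20 μM final (or serial dilutions for IC50) for 3 h at room temperature, ±Sos (residues 556-1049) in final hour. Bound Cy3- or Cy5-GTP (100 nM, 45 min) read by fluorescence after washing.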

For a further assay, the target named is KRas G12C mutant (Homo sapiens (Human), UniProt P01116, G12C). Nature of the assay: Ras GTP Binding Domain Inhibition Assay, KRas G12C mutant. A digest of the protocol:
as §1

The target of the next assay is Rac-1 (Homo sapiens (Human), UniProt P63000). The assay is described as follows: Ras GTP Binding Domain Inhibition Assay, Rac-1. As to conditions: without SOS, read-out: Rac-1: % inh. A digest of the protocol:
(§2)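 Fluorescent GTP binding to plate-captured His-tagged Ras: compound 20 μM (or dilution series for IC50), 3 h RT, ±Sos GEF 10-30 μg/mL last hour; then 100 nM Cy3/Cy5-GTP 45 min RT, wash ×3, read bound label.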

A further assay addresses Rho-A (Homo sapiens (Human), UniProt P61586). The assay is described as follows: Ras GTP Binding Domain Inhibition Assay, Rho-A. As to conditions: without SOS, read-out: Rho-A: % inh. A digest of the protocol: as §2
[1] abbreviates: + SOS, read-out: KRas wild type + SOS: % inh.
The mark [2] stands for this setting: without SOS, read-out: KRas wild type: % inh.
Where [3] appears, read: + SOS, read-out: KRas G12C mutant + SOS: % inh.
The mark [4] stands for this setting: without SOS, read-out: KRas G12C mutant: % inh.

KRas wild type, sequence (P01116 other isoform, or with tags, fused parts or gaps): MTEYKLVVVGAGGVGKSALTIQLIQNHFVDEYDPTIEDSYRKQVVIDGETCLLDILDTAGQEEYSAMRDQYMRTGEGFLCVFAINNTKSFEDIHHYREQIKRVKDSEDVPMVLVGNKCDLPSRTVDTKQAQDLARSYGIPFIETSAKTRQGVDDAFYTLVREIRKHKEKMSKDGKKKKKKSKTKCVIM
Rho-A, sequence (P61586 whole entry, species assumed, the tested form may be a part): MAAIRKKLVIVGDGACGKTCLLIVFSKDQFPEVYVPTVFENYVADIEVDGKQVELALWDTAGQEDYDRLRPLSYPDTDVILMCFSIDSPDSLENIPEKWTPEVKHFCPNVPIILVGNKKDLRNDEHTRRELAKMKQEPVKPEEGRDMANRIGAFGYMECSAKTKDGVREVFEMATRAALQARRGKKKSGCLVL
KRas G12C mutant, sequence (P01116 other isoform, or with tags, fused parts or gaps G12C): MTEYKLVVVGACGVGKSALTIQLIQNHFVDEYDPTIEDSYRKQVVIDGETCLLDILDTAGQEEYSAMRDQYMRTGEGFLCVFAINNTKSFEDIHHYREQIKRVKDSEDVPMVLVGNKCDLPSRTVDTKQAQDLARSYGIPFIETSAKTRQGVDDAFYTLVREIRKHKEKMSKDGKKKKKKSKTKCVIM

For the compound `COCCOc1nc(-c2nccn2C)nc2sc(-c3ccn(C(C)C)n3)c(C)c12` [Compound 30, 6-(1-Isopropyl-1H-pyrazol-3-yl)-4-(2-methoxyethoxy)-5-methyl-2-(1-methyl-1H-imidazol-2-yl)thieno[2,3-d]pyrimidine], the “Activation of JNK in PANC-1” value in the assay on JNK is on record as “N”. The inhibition at 20 µM at KRas wild type (setting [1]) is 0%; on KRas wild type (setting [2]), 1 to 25%; at KRas G12C mutant (setting [3]), 0%; on KRas G12C mutant (setting [4]) it was 1 to 25%; at Rac-1, 0%; on Rho-A, 0%.

Turning to `COCCCn1c(-c2nccn2C)nc2sc(-c3ccn(C(C)C)n3)c(C)c2c1=O` [Compound 31, 6-(1-Isopropyl-1H-pyrazol-3-yl)-3-(3-methoxypropyl)-5-methyl-2-(1-methyl-1H-imidazol-2-yl)thieno[2,3-d]pyrimidin-4(3H)-one], the “Activation of JNK in PANC-1” value in the assay on JNK is “N”. The inhibition at 20 µM on KRas wild type (setting [1]) was 1 to 25%; at KRas wild type (setting [2]) it was 1 to 25%; on KRas G12C mutant (setting [3]) it was 0%; on KRas G12C mutant (setting [4]), 0%; at Rac-1 it was 0%; at Rho-A, 0%.

For `COCCCOc1nc(-c2nccn2C)nc2sc(-c3ccn(C(C)C)n3)c(C)c12` [Compound 32, 6-(1-Isopropyl-1H-pyrazol-3-yl)-4-(3-methoxypropoxy)-5-methyl-2-(1-methyl-1H-imidazol-2-yl)thieno[2,3-d]pyrimidine], in the assay with JNK, the “Activation of JNK in PANC-1” value is reported as “Y”. In addition, the inhibition at 20 µM on KRas wild type (setting [1]) is 76 to 100%; on KRas wild type (setting [2]), 76 to 100%; on KRas G12C mutant (setting [3]) it was 46 to 75%; at KRas G12C mutant (setting [4]) it was 46 to 75%; at Rac-1, 0%; at Rho-A, 76 to 100%.

With `COCCCCn1c(-c2nccn2C)nc2sc(-c3ccn(C(C)C)n3)c(C)c2c1=O` [Compound 33, 6-(1-Isopropyl-1H-pyrazol-3-yl)-3-(4-methoxybutyl)-5-methyl-2-(1-methyl-1H-imidazol-2-yl)thieno[2,3-d]pyrimidin-4(3H)-one], the “Activation of JNK in PANC-1” value in the assay on JNK is “N”. In addition, the inhibition at 20 µM on KRas wild type (setting [1]) was 1 to 25%; at KRas wild type (setting [2]), 0%; on KRas G12C mutant (setting [3]), 1 to 25%; on KRas G12C mutant (setting [4]), 0%; on Rac-1, 0%; on Rho-A it was 0%.

Consider `COCCCCOc1nc(-c2nccn2C)nc2sc(-c3ccn(C(C)C)n3)c(C)c12` [Compound 34, 6-(1-Isopropyl-1H-pyrazol-3-yl)-4-(4-methoxybutoxy)-5-methyl-2-(1-methyl-1H-imidazol-2-yl)thieno[2,3-d]pyrimidine], for which the “Activation of JNK in PANC-1” value in the assay on JNK is “Y”. Further, the inhibition at 20 µM at KRas wild type (setting [1]) was 0%; at KRas wild type (setting [2]), 1 to 25%; on KRas G12C mutant (setting [3]), 1 to 25%; on KRas G12C mutant (setting [4]), 0%; at Rac-1 it was 0%; at Rho-A, 0%.

`COc1cc(Cn2c(-c3nccn3C)nc3sc(-c4ccn(C(C)C)n4)c(C)c3c2=O)ncn1` [Compound 35, 6-(1-Isopropyl-1H-pyrazol-3-yl)-3-((6-methoxypyrimidin-4-yl)methyl)-5-methyl-2-(1-methyl-1H-imidazol-2-yl)thieno[2,3-d]pyrimidin-4(3H)-one]: in the assay with JNK, the “Activation of JNK in PANC-1” value is “N”. The inhibition at 20 µM at KRas wild type (setting [1]) is 1 to 25%; at KRas wild type (setting [2]), 1 to 25%; at KRas G12C mutant (setting [3]) it was 1 to 25%; on KRas G12C mutant (setting [4]), 0%; at Rac-1, 0%; at Rho-A, 0%.

As to `COCCCn1c(-c2nccn2C)nc2sc(-c3ccn(C(C)C)n3)c(-c3ccccc3)c2c1=O` [Compound 36, 6-(1-Isopropyl-1H-pyrazol-3-yl)-3-(3-methoxypropyl)-2-(1-methyl-1H-imidazol-2-yl)-5-phenylthieno[2,3-d]pyrimidin-4(3H)-one], the “Activation of JNK in PANC-1” value in the assay on JNK is “Y”. Moreover, the inhibition at 20 µM at KRas wild type (setting [1]) was 1 to 25%; at KRas wild type (setting [2]) it was 1 to 25%; at KRas G12C mutant (setting [3]) it was 1 to 25%; at KRas G12C mutant (setting [4]) it was 0%; on Rac-1, 0%; at Rho-A it was 0%.

In the case of `COCCCOc1nc(-c2nccn2C)nc2sc(-c3ccn(C(C)C)n3)c(-c3ccccc3)c12` [Compound 37, 6-(1-Isopropyl-1H-pyrazol-3-yl)-4-(3-methoxypropoxy)-2-(1-methyl-1H-imidazol-2-yl)-5-phenylthieno[2,3-d]pyrimidine], the “Activation of JNK in PANC-1” value with JNK was “N”. Besides, the inhibition at 20 µM is 1 to 25% on KRas wild type (setting [1]); 0% at KRas wild type (setting [2]); 0% at KRas G12C mutant (setting [3]); 0% on KRas G12C mutant (setting [4]); 0% on Rac-1; 0% at Rho-A.

For the compound `COc1cccc(-c2sc3nc(-c4nccn4C)nc(N[C@H]4C[C@H](OC)C4)c3c2-c2ccccc2)c1F` [Compound 40, 6-(2-Fluoro-3-methoxyphenyl)-N-((1r,3r)-3-methoxycyclobutyl)-2-(1-methyl-1H-imidazol-2-yl)-5-phenylthieno[2,3-d]pyrimidin-4-amine], the “Activation of JNK in PANC-1” value in the assay on JNK is on record as “Y”. Further, the inhibition at 20 µM lay in the range of 76 to 100% on KRas wild type (setting [1]); 46 to 75% at KRas wild type (setting [2]); 76 to 100% on KRas G12C mutant (setting [3]); 46 to 75% on KRas G12C mutant (setting [4]); 26 to 45% at Rac-1; 26 to 45% at Rho-A.

Regarding `COc1cccc(-c2sc3nc(-c4nccn4C)nc(N[C@H]4C[C@H](OC)C4)c3c2C)c1F` [Compound 42, 6-(2-Fluoro-3-methoxyphenyl)-N-((1r,3r)-3-methoxycyclobutyl)-5-methyl-2-(1-methyl-1H-imidazol-2-yl)thieno[2,3-d]pyrimidin-4-amine], the “Activation of JNK in PANC-1” value in the assay on JNK is “Y”. Besides, the inhibition at 20 µM was 76 to 100% on KRas wild type (setting [1]); 76 to 100% on KRas wild type (setting [2]); 76 to 100% on KRas G12C mutant (setting [3]); 46 to 75% on KRas G12C mutant (setting [4]); 0% at Rac-1; 46 to 75% at Rho-A.

`COc1nccc(-c2sc3nc(-c4nccn4C)nc(N[C@H]4C[C@H](OC)C4)c3c2-c2ccccc2)c1F` [Compound 45, 6-(3-Fluoro-2-methoxypyridin-4-yl)-N-((1r,3r)-3-methoxycyclobutyl)-2-(1-methyl-1H-imidazol-2-yl)-5-phenylthieno[2,3-d]pyrimidin-4-amine]: the “Activation of JNK in PANC-1” value with JNK was “Y”. In addition, the inhibition at 20 µM is 76 to 100% on KRas wild type (setting [1]); 46 to 75% at KRas wild type (setting [2]); 76 to 100% on KRas G12C mutant (setting [3]); 26 to 45% on KRas G12C mutant (setting [4]); 46 to 75% on Rac-1; 46 to 75% at Rho-A.

For the compound `COc1cc(-c2sc3nc(-c4nccn4C)nc(N[C@H]4C[C@H](OC)C4)c3c2-c2ccccc2)ccn1` [Compound 46, N-((1r,3r)-3-Methoxycyclobutyl)-6-(2-methoxypyridin-4-yl)-2-(1-methyl-1H-imidazol-2-yl)-5-phenylthieno[2,3-d]pyrimidin-4-amine], the “Activation of JNK in PANC-1” value with JNK is reported as “Y”. The inhibition at 20 µM lay within 76 to 100% at KRas wild type (setting [1]); 46 to 75% at KRas wild type (setting [2]); 76 to 100% on KRas G12C mutant (setting [3]); 26 to 45% on KRas G12C mutant (setting [4]); 46 to 75% on Rac-1; 46 to 75% on Rho-A.
